SMILES: Cc1ccc(NC(=O)/C(=C/Cl)Sc2ccccc2)cc1
- solubility (mole fraction) (in 1,2-dichloroethane, 278.15 K): 0.0353
- solubility (mole fraction) (in 1,2-dichloroethane, 283.15 K): 0.0413
- solubility (mole fraction) (in 1,2-dichloroethane, 288.15 K): 0.0512
- solubility (mole fraction) (in 1,2-dichloroethane, 293.15 K): 0.0615
- solubility (mole fraction) (in 1,2-dichloroethane, 298.15 K): 0.0773
- solubility (mole fraction) (in 1,2-dichloroethane, 303.15 K): 0.0942
- solubility (mole fraction) (in 1,2-dichloroethane, 308.15 K): 0.115
- solubility (mole fraction) (in 1,2-dichloroethane, 313.15 K): 0.136
- solubility (mole fraction) (in 1,2-dichloroethane, 318.15 K): 0.161
- solubility (mole fraction) (in 2-butanone, 278.15 K): 0.0308
- solubility (mole fraction) (in 2-butanone, 283.15 K): 0.0365
- solubility (mole fraction) (in 2-butanone, 288.15 K): 0.0436
- solubility (mole fraction) (in 2-butanone, 293.15 K): 0.0529
- solubility (mole fraction) (in 2-butanone, 298.15 K): 0.0632
- solubility (mole fraction) (in 2-butanone, 303.15 K): 0.0772
- solubility (mole fraction) (in 2-butanone, 308.15 K): 0.0943
- solubility (mole fraction) (in 2-butanone, 313.15 K): 0.112
- solubility (mole fraction) (in 2-butanone, 318.15 K): 0.135
- solubility (mole fraction) (in 2-methyltetrahydrofuran, 278.15 K): 0.0393
- solubility (mole fraction) (in 2-methyltetrahydrofuran, 283.15 K): 0.0466
- solubility (mole fraction) (in 2-methyltetrahydrofuran, 288.15 K): 0.0507
- solubility (mole fraction) (in 2-methyltetrahydrofuran, 293.15 K): 0.0604
- solubility (mole fraction) (in 2-methyltetrahydrofuran, 298.15 K): 0.0702
- solubility (mole fraction) (in 2-methyltetrahydrofuran, 303.15 K): 0.0858
- solubility (mole fraction) (in 2-methyltetrahydrofuran, 308.15 K): 0.103
- solubility (mole fraction) (in 2-methyltetrahydrofuran, 313.15 K): 0.126
- solubility (mole fraction) (in 2-methyltetrahydrofuran, 318.15 K): 0.145
- solubility (mole fraction) (in MTBE, 278.15 K): 0.0068
- solubility (mole fraction) (in MTBE, 283.15 K): 0.0075
- solubility (mole fraction) (in MTBE, 288.15 K): 0.0092
- solubility (mole fraction) (in MTBE, 293.15 K): 0.0104
- solubility (mole fraction) (in MTBE, 298.15 K): 0.0132
- solubility (mole fraction) (in MTBE, 303.15 K): 0.0153
- solubility (mole fraction) (in MTBE, 308.15 K): 0.0187
- solubility (mole fraction) (in MTBE, 313.15 K): 0.0223
- solubility (mole fraction) (in MTBE, 318.15 K): 0.0277
- solubility (mole fraction) (in THF, 278.15 K): 0.0849
- solubility (mole fraction) (in THF, 283.15 K): 0.0953
- solubility (mole fraction) (in THF, 288.15 K): 0.105
- solubility (mole fraction) (in THF, 293.15 K): 0.118
- solubility (mole fraction) (in THF, 298.15 K): 0.133
- solubility (mole fraction) (in THF, 303.15 K): 0.154
- solubility (mole fraction) (in THF, 308.15 K): 0.171
- solubility (mole fraction) (in THF, 313.15 K): 0.195
- solubility (mole fraction) (in THF, 318.15 K): 0.218
- solubility (mole fraction) (in acetone, 278.15 K): 0.0216
- solubility (mole fraction) (in acetone, 283.15 K): 0.0258
- solubility (mole fraction) (in acetone, 288.15 K): 0.0296
- solubility (mole fraction) (in acetone, 293.15 K): 0.0364
- solubility (mole fraction) (in acetone, 298.15 K): 0.0452
- solubility (mole fraction) (in acetone, 303.15 K): 0.0564
- solubility (mole fraction) (in acetone, 308.15 K): 0.0707
- solubility (mole fraction) (in acetone, 313.15 K): 0.0889
- solubility (mole fraction) (in acetone, 318.15 K): 0.114
- solubility (mole fraction) (in acetonitrile, 278.15 K): 0.0043
- solubility (mole fraction) (in acetonitrile, 283.15 K): 0.0051
- solubility (mole fraction) (in acetonitrile, 288.15 K): 0.0065
- solubility (mole fraction) (in acetonitrile, 293.15 K): 0.0086
- solubility (mole fraction) (in acetonitrile, 298.15 K): 0.0115
- solubility (mole fraction) (in acetonitrile, 303.15 K): 0.0148
- solubility (mole fraction) (in acetonitrile, 308.15 K): 0.02
- solubility (mole fraction) (in acetonitrile, 313.15 K): 0.0267
- solubility (mole fraction) (in acetonitrile, 318.15 K): 0.0362
- solubility (mole fraction) (in ethyl acetate, 278.15 K): 0.0187
- solubility (mole fraction) (in ethyl acetate, 283.15 K): 0.0233
- solubility (mole fraction) (in ethyl acetate, 288.15 K): 0.0271
- solubility (mole fraction) (in ethyl acetate, 293.15 K): 0.0331
- solubility (mole fraction) (in ethyl acetate, 298.15 K): 0.0409
- solubility (mole fraction) (in ethyl acetate, 303.15 K): 0.0522
- solubility (mole fraction) (in ethyl acetate, 308.15 K): 0.0657
- solubility (mole fraction) (in ethyl acetate, 313.15 K): 0.0794
- solubility (mole fraction) (in ethyl acetate, 318.15 K): 0.0978
- solubility (mole fraction) (in isopropanol, 278.15 K): 0.0019
- solubility (mole fraction) (in isopropanol, 283.15 K): 0.0021
- solubility (mole fraction) (in isopropanol, 288.15 K): 0.0025
- solubility (mole fraction) (in isopropanol, 293.15 K): 0.0031
- solubility (mole fraction) (in isopropanol, 298.15 K): 0.0041
- solubility (mole fraction) (in isopropanol, 303.15 K): 0.0048
- solubility (mole fraction) (in isopropanol, 308.15 K): 0.0063
- solubility (mole fraction) (in isopropanol, 313.15 K): 0.0075
- solubility (mole fraction) (in isopropanol, 318.15 K): 0.0093
- solubility (mole fraction) (in methyl acetate, 278.15 K): 0.0153
- solubility (mole fraction) (in methyl acetate, 283.15 K): 0.0195
- solubility (mole fraction) (in methyl acetate, 288.15 K): 0.0228
- solubility (mole fraction) (in methyl acetate, 293.15 K): 0.028
- solubility (mole fraction) (in methyl acetate, 298.15 K): 0.0352
- solubility (mole fraction) (in methyl acetate, 303.15 K): 0.0471
- solubility (mole fraction) (in methyl acetate, 308.15 K): 0.0572
- solubility (mole fraction) (in methyl acetate, 313.15 K): 0.0693
- solubility (mole fraction) (in methyl acetate, 318.15 K): 0.0797
- solubility (mole fraction) (in tert-amyl alcohol, 278.15 K): 0.0013
- solubility (mole fraction) (in tert-amyl alcohol, 283.15 K): 0.0015
- solubility (mole fraction) (in tert-amyl alcohol, 288.15 K): 0.0018
- solubility (mole fraction) (in tert-amyl alcohol, 293.15 K): 0.0026
- solubility (mole fraction) (in tert-amyl alcohol, 298.15 K): 0.0034
- solubility (mole fraction) (in tert-amyl alcohol, 303.15 K): 0.005
- solubility (mole fraction) (in tert-amyl alcohol, 308.15 K): 0.0068
- solubility (mole fraction) (in tert-amyl alcohol, 313.15 K): 0.0096
- solubility (mole fraction) (in tert-amyl alcohol, 318.15 K): 0.0129
- solubility (mole fraction) (in toluene, 278.15 K): 0.014
- solubility (mole fraction) (in toluene, 283.15 K): 0.0165
- solubility (mole fraction) (in toluene, 288.15 K): 0.0202
- solubility (mole fraction) (in toluene, 293.15 K): 0.0266
- solubility (mole fraction) (in toluene, 298.15 K): 0.0318
- solubility (mole fraction) (in toluene, 303.15 K): 0.0443
- solubility (mole fraction) (in toluene, 308.15 K): 0.0551
- solubility (mole fraction) (in toluene, 313.15 K): 0.069
- solubility (mole fraction) (in toluene, 318.15 K): 0.0876
